From the NIST ThermoML archive (doi:10.1016/j.jct.2008.10.007)

Tests used:
[1] = 298.15 K; 101 kPa; Liquid; Vibrating tube method
[2] = excess molar enthalpy (molar enthalpy of mixing); xn = mol fraction of the nth substance listed; details: 298.15 K, 101 kPa, Liquid, Calvet calorimetry
[3] = xn = mol fraction of the nth substance listed; details: 298.15 K, 101 kPa, Liquid, Vibrating tube method

CCCOC(=O)CCC [propyl butanoate]
Details	mass density [kg/m3]
[1]	867.9

CCCOC(=O)CCC [propyl butanoate] + ClCCCCCl
Details	excess molar enthalpy [kcal/mol]	mass density [kg/m3]
[2], x1 = 0.0503	-0.00454	–
[2], x1 = 0.1217	-0.0117	–
[2], x1 = 0.2009	-0.0203	–
[2], x1 = 0.2826	-0.0306	–
[2], x1 = 0.3602	-0.0416	–
[2], x1 = 0.4315	-0.0516	–
[2], x1 = 0.5579	-0.0629	–
[2], x1 = 0.6248	-0.0612	–
[2], x1 = 0.699	-0.0559	–
[2], x1 = 0.7829	-0.0457	–
[2], x1 = 0.8689	-0.0301	–
[2], x1 = 0.9389	-0.0158	–
[3], x1 = 0.1349	–	1087.88
[3], x1 = 0.1841	–	1072.12
[3], x1 = 0.233	–	1056.97
[3], x1 = 0.2856	–	1041.17
[3], x1 = 0.3405	–	1025.23
[3], x1 = 0.3956	–	1009.76
[3], x1 = 0.5129	–	978.41
[3], x1 = 0.6385	–	947.12
[3], x1 = 0.7731	–	915.88
[3], x1 = 0.8454	–	900
[3], x1 = 0.918	–	884.64
[3], x1 = 1	–	867.9

CCCOC(=O)CCC [propyl butanoate] + ClCCCCl
Details	excess molar enthalpy [kcal/mol]	mass density [kg/m3]
[2], x1 = 0.0386	-0.00478	–
[2], x1 = 0.0938	-0.0127	–
[2], x1 = 0.159	-0.0229	–
[2], x1 = 0.2273	-0.0375	–
[2], x1 = 0.2973	-0.0507	–
[2], x1 = 0.3649	-0.0626	–
[2], x1 = 0.4253	-0.0712	–
[2], x1 = 0.5121	-0.081	–
[2], x1 = 0.5732	-0.0798	–
[2], x1 = 0.6582	-0.0753	–
[2], x1 = 0.748	-0.0652	–
[2], x1 = 0.8421	-0.0464	–
[2], x1 = 0.9299	-0.0234	–
[3], x1 = 0.0366	–	1161.49
[3], x1 = 0.0766	–	1143.1
[3], x1 = 0.1186	–	1124.61
[3], x1 = 0.1603	–	1107.03
[3], x1 = 0.2067	–	1088.41
[3], x1 = 0.2552	–	1069.83
[3], x1 = 0.3066	–	1051.21
[3], x1 = 0.3595	–	1032.94
[3], x1 = 0.4152	–	1014.72
[3], x1 = 0.5357	–	978.32
[3], x1 = 0.5999	–	960.48
[3], x1 = 0.6691	–	942.33
[3], x1 = 0.7439	–	923.8
[3], x1 = 0.8228	–	905.44
[3], x1 = 0.9064	–	887.12
[3], x1 = 1	–	867.9
